In patent US11633370B2, “Use of scavengers of reactive gamma-ketoaldehydes to extend cell lifespan and healthspan” (Vanderbilt University, priority 2016, dated 2023):

Experiments:
[1] = test system: VC199 (SIR-2.1 deficient strain); experiment: F3-IsoP quantification by GC/MS, VC199; format: in vivo, C. elegans; conditions: any dose of SA tested, Day 15
Source text: One of the major stimuli for activation of sirtuins is oxidative stress. […] Indeed, the mitochondrial antioxidant manganese superoxide dismutase (MnSOD) has been identified as one of the major protein targets that is deacetylated by sirtuin isoforms, with deacetylation enhancing the enzymatic activity of MnSOD [60]. If SA indeed preserves SIR-2.1 enzymatic function in vivo, the present inventors hypothesized that SA treatment would dose-dependently decrease biomarkers of oxidant injury in a SIR-2.1-dependent manner. To quantify oxidant injury, the present inventors measured F3-isoprostanes (F3-IsoPs). […] To further characterize SA's ability to preserve SIR-2.1 function, the present inventors assessed acetylation of MnSOD at Lys 122.
F3-Isoprostanes were quantified from SA-treated worms a gas-chromatography-negative ion chemical ionization-mass spectrometry (GC-NICI-MS) approach. […]
Samples were spiked with 248 pg of deuterated internal standards, [^2H4]-15-F2t-IsoP, quantified and calibrated by the method of Milne et al. and acidified to pH<3 with HCl in preparation for further Separation Phase Extraction (SPE). […]
Eluates were dried under nitrogen and F3—IsoPs and resuspended in MeOH for separation by Thin Layer Chromatography (TLC). […] Deuterated F2-IsoP standard was measured at m/z 573. F3—IsoP was measured at m/z 567. […]

daf-16(mu86) = experiment: Longevity assay, daf-16 gene knockout mutant strain; format: in vivo, C. elegans; conditions: SA from day 1 of adulthood; P<0.01 versus vehicle control
Description: C. elegans strains were cultured at 20° C. on standard nematode growth media (NGM) agar plates seeded with Escherichia coli strain NA22. The following strains were used in this work: wild-type C. elegans Bristol strain (N2), sir-2.1(ok434) IV, F19F10.5(ok888) V, and daf-16(mu86). Strains were obtained from the Caenorhabditis Genetics Center (University of Minnesota, St. Paul, Minn.). For generating cultures of 15-day-old (Day 15) adult worms, synchronized late-stage L4s/early young adult worms were transferred to peptone enriched 15 cm plates containing UV-irradiated OP50 E. coli and 0.12 mM 5-fluoro-2′-deoxyuridine (FUDR) to inhibit progeny production[88] with or without drug until harvest.
Survival cultures were grown on 60-mm agar plates; after the late-stage L4/young adult molt, approximately 100 adults were transferred onto SA-OP50-seeded NGM plates. Salicylamine drug plates were made fresh before transfer by spreading SA on top of the agar. […] Worms were maintained at 20° C. and live worms were counted during transfer to freshly made SA-OP50-NGM agar plates every 2-3 days. Survival was scored as movement upon slight touch with the platinum wire. […]
FIG. 7 (S1). […] Survival was assessed every 2 days until all the worms died. […] Data are expressed as means±SEM from four independent experiments. *P<0.01 as compared to vehicle control.

For `NCc1ccccc1O` [SA, salicylamine], the F3-IsoP levels [1] was “did not significantly decrease” and the “maximum and median lifespan” value (daf-16(mu86)) was “increased maximum and median lifespan”.
